According to US4166864A, “Pesticidal unsymmetrical bis-arylcarbamate disulfide compounds” (Union Carbide Corporation, priority 1977, dated 1979):

How the values were obtained:
Format in all cases: in vivo
[1] = system: house flies (Musca domestica, L.); test: Fly Bait Test; design: key: A: excellent control; B: partial control; C: no control; conditions: 500 ppm in sugar-solution bait, twenty four hours
Procedure: (§1) Suspensions of the test compounds were prepared by dissolving one gram of compound in 50 milliliters of acetone in which had been dissolved 0.1 gram (10 percent of the weight of compound) of an alkylphenoxy polyethoxyethanol surfactant, as an emulsifying or dispersing agent. The resulting solution was mixed into 150 milliliters of water to give roughly 200 milliliters of a suspension containing the compound in finely divided form. The thus-prepared stock suspension contained 0.5 percent by weight of compound. The test concentrations in parts per million by weight employed in the tests described hereinbelow were obtained by appropriate dilutions of the stock suspension with water. The test procedures were as follows:
Four to six day old adult house flies (Musca domestica, L.) reared according to the specifications of the Chemical Specialties Manufacturing Association (Blue Book, McNair-Dorland Co., N.Y. 1954; pages 243-244, 261) under controlled conditions of 80°±5° F. and 50±5 percent relative humidity, were the test insects. The flies were immobilized by anesthetizing with carbon dioxide and twenty five immobilized individuals, males and females, were transferred to a cage consisting of a standard food strainer about five inches in diameter which was inverted over a wrapping-paper-covered surface. The test compounds were formulated by diluting the stock suspension with a 10 percent (by weight) sugar solution to give a suspension containing 500 parts of test compound per million parts of final formulation, by weight. Ten milliliters of the test formulation were added to a souffle cup containing a one-inch square of an absorbent cotton pad. This bait cup was introduced and centered on the blotting paper under the food strainer prior to admitting the anesthetized flies. The caged flies were allowed to feed on the bait for twenty four hours, at a temperature of 80°±5° F. and the relative humidity of 50±5 percent.
(§2) In these tests the pesticidal activity of the compounds against aphid, mite, Southerm Armyworm, Bean Beetle and house fly was rated as follows: […]

[2] = system: Mexican bean beetle (Epilachna varivestis, Muls.); test: Mexican Bean Beetle Leaf Spray Test; design: key: A: excellent control; B: partial control; C: no control; conditions: 500 ppm leaf spray, three days
Procedure: as §1
Fourth instar larvae of the Mexican bean beetle (Epilachna varivestis, Muls.), reared on Tendergreen bean plants at a temperature of 80°±5° F. and 50±5 percent relative humidity, were the test insects.
The test compounds were formulated by diluting the stock suspension with water to give a suspension containing 500 parts of test compound per million parts of final formulation. Potted Tendergreen bean plants of standard height and age were placed on a revolving turntable and sprayed with 100-110 milliliters of test compound formulation by use of a DeVilbiss spray gun set at 10 psig air pressure. This application, which lasted 25 seconds, was sufficient to wet plants to run-off. As a control, 100-110 milliliters of a water-acetone-emulsifier solution containing no test compound were also sprayed on infested plants. When dry, the paired leaves were separated and each was placed in a 9 centimeter Petri dish lined with moistened filter paper. Five randomly selected larvae were introduced into each dish, and the dishes were closed. The closed dishes were labeled and held at a temperature of 80°±5° F. for three days. Although the larvae could easily consume the leaf within 24 to 48 hours, no more food was added. Larvae which were unable to move the length of the body, even upon stimulation, were considered dead.
as §2

[3] = system: Tomato; test: Phytotoxicity Test, tomato; design: key: 1: no perceptible injury; 2: intermediate degrees of injury based upon the number and extent to which leaves were injured; 3: intermediate degrees of injury based upon the number and extent to which leaves were injured; 4: intermediate degrees of injury based upon the number and extent to which leaves were injured; 5: the plant was dead; conditions: 2500 ppm spray, rated after ten days
Procedure: (§3) Experiments were also conducted to determine the phytoxicity of representative compounds with respect to healthy fresh plants. Solutions of the compounds were prepared as described above to provide a concentration of 2500 parts per million of the test compound. The test plants were sprayed in accordance with the procedure described above for the Mite Foliage Spray Test so as to deliver approximately 100 milliliters of test solution to the leaves of each plant tested. The sprayed plants and controls were set aside for approximately one hour to allow the foliage to dry and were then placed in the greenhouse. After ten days the plants were visually inspected to determine the extent of foliage injury. A rating of 1 indicates no perceptible injury; 5 indicates the plant was dead and ratings of 2, 3 and 4 indicate intermediate degrees of injury based upon the number and extent to which leaves were injured.

[4] = system: bean aphid (Aphis fabae Scop.); test: Bean Aphid Foliage Spray Test; design: key: A: excellent control; B: partial control; C: no control; conditions: 500 ppm foliage spray, 24 hour holding period
Procedure: as §1
Adults and nymphal stages of the bean aphid (Aphis fabae Scop.) reared on potted dwarf nasturtium plants at […] and 50-70 percent relative humidity, constituted the test insects. For testing purposes, the number of aphids per pot was standardized to 100-150 by trimming plants containing excess aphids.
The test compounds were formulated by diluting the stock suspension with water to give a suspension containing 500 parts of test compound per million parts of final formulation.
The potted plants (one pot per compound tested) infested with 100-150 aphids, were placed on a revolving turntable and sprayed with 100-110 milliliters of test compound formulation by use of a DeVilbiss spray gun set at 40 psig. air pressure. This application, which lasted 25 seconds, was sufficient to wet the plants to run-off. As a control, 100-110 milliliters of a water-acetone-emulsifier solution containing no test compound were also sprayed on infested plants. After spraying, the pots were placed on their sides on a sheet of white standard mimeograph paper which had been previously ruled to facilitate counting. Temperature and humidity in the test room during the 24 hour holding period were 65°-70° F. and 50-70 percent, respectively. Aphids which fell onto the paper and were unable to remain standing after being uprighted were considered dead. Aphids remaining on the plants were observed closely for movement and those which were unable to move the length of the body upon stimulation by prodding were considered dead. Percent mortality was recorded for various concentration levels.
as §2

[5] = system: two-spotted mite (Tetranychus urticae Koch); test: Mite Foliage Spray Test; design: key: A: excellent control; B: partial control; C: no control; conditions: 500 ppm foliage spray, six days
Procedure: as §1
Adults and nymphal stages of the two-spotted mite (Tetranychus urticae Koch), reared on Tendergreen bean plants at 80±5 percent relative humidity, were the test organisms. Infested leaves from a stock culture were placed on the primary leaves of two bean plants six to eight inches in height, growing in a two-and-a-half inch clay pot. 150-200 Mites, a sufficient number for testing, transferred from the excised leaves to the fresh plants in a period of twenty four hours. Following the twenty four hour transfer period, the excised leaves were removed from the infested plants. The test compounds were formulated by diluting the stock suspension with water to give a suspension containing 500 parts of test compound per million parts of final formulation. The potted plants (one pot per compound) were placed on a revolving turntable and sprayed with 100-110 milliliters of test compound formulation by use of a DeVilbiss spray gun set at 40 psig. air pressure. This application, which lasted 25 seconds, was sufficient to wet the plants to run-off. As a control, 100=110 milliliters of a water solution containing acetone and emulsifier in the same concentrations as the test compound formulation, but containing no test compound, were also sprayed on infested plants. The sprayed plants were held at 80±5 percent relative humidity for six days, after which a mortality count of motile forms was made. Microscopic examination for motile forms was made on the leaves of the test plants. Any individual which was capable of locomotion upon prodding was considered living. […]
as §2

[6] = system: southern armyworm (Prodenia eridania, (Cram.)); test: Southern Armyworm Leaf Spray Test; design: key: A: excellent control; B: partial control; C: no control; conditions: 500 ppm leaf spray, three days
Procedure: as §1
Larvae of the southern arymworm (Prodenia eridania, (Cram.)), reared on Tendergreen bean plants at a temperature of 80°±5° F. and a relative humidity of 50±5 percent, constituted the test insects.
The test compounds were formulated by diluting the stock suspension with water to give a suspension containing 500 parts of test compound per million parts of final formulation. Potted Tendergreen bean plants of standard height and age were placed on a revolving turntable and sprayed with 100-110 milliliters of test compound formulation by use of a DeVilbiss spray gun set at 10 psig air pressure. This application, which lasted 25 seconds, was sufficient to wet plants to run-off. As a control, 100-110 milliliters of a water-acetone-emulsifier solution containing no test compound were also sprayed on infested plants. When dry, the paired leaves were separated and each one was placed in a 9 centimeter Petri dish lined with moistened filter paper. Five randomly selected larvae were introduced into each dish and the dishes were closed. The closed dishes were labeled and held at 80°-85° F. for three days. Although the larvae could easily consume the whole leaf within twenty-four hours, no more food was added. Larvae which were unable to move the length of the body, even upon stimulation by prodding, were considered dead. Percent mortality was recorded for various concentration levels.
as §2

[7] = system: Soybean; test: Phytotoxicity Test, soybean; design: key: 1: no perceptible injury; 2: intermediate degrees of injury based upon the number and extent to which leaves were injured; 3: intermediate degrees of injury based upon the number and extent to which leaves were injured; 4: intermediate degrees of injury based upon the number and extent to which leaves were injured; 5: the plant was dead; conditions: 2500 ppm spray, rated after ten days
Procedure: as §3

[8] = system: Bean; test: Phytotoxicity Test, bean; design: key: 1: no perceptible injury; 2: intermediate degrees of injury based upon the number and extent to which leaves were injured; 3: intermediate degrees of injury based upon the number and extent to which leaves were injured; 4: intermediate degrees of injury based upon the number and extent to which leaves were injured; 5: the plant was dead; conditions: 2500 ppm spray, rated after ten days
Procedure: as §3

[9] = system: Cotton; test: Phytotoxicity Test, cotton; design: key: 1: no perceptible injury; 2: intermediate degrees of injury based upon the number and extent to which leaves were injured; 3: intermediate degrees of injury based upon the number and extent to which leaves were injured; 4: intermediate degrees of injury based upon the number and extent to which leaves were injured; 5: the plant was dead; conditions: 2500 ppm spray, rated after ten days
Procedure: as §3

[10] = system: Corn; test: Phytotoxicity Test, corn; design: key: 1: no perceptible injury; 2: intermediate degrees of injury based upon the number and extent to which leaves were injured; 3: intermediate degrees of injury based upon the number and extent to which leaves were injured; 4: intermediate degrees of injury based upon the number and extent to which leaves were injured; 5: the plant was dead; conditions: 2500 ppm spray, rated after ten days
Procedure: as §3

CN(SSN(C)C(=O)Oc1cccc2ccccc12)C(=O)Oc1cccc2c1OC(C)(C)C2
1: Phytotoxicity, Tomato [3] | Phytotoxicity, Soybean [7] | Phytotoxicity, Bean [8] | Phytotoxicity, Cotton [9] | Phytotoxicity, Corn [10]
C: Miticidal activity rating, Mite [5]
A: Insecticidal activity rating, Housefly [1] | Insecticidal activity rating, Mexican Bean Beetle [2] | Insecticidal activity rating, Aphid [4] | Insecticidal activity rating, Southern Armyworm [6]

CN(SSN(C)C(=O)Oc1ccccc1C1SCCS1)C(=O)Oc1ccc(C(C)(C)C)cc1
C: Miticidal activity rating, Mite [5] | Insecticidal activity rating, Southern Armyworm [6]
A: Insecticidal activity rating, Housefly [1] | Insecticidal activity rating, Mexican Bean Beetle [2] | Insecticidal activity rating, Aphid [4]
1: Phytotoxicity, Tomato [3] | Phytotoxicity, Soybean [7] | Phytotoxicity, Bean [8] | Phytotoxicity, Cotton [9] | Phytotoxicity, Corn [10]

C#CCOc1ccccc1OC(=O)N(C)SSN(C)C(=O)Oc1cccc2c1OC(C)(C)C2
A: Insecticidal activity rating, Housefly [1] | Insecticidal activity rating, Mexican Bean Beetle [2] | Insecticidal activity rating, Aphid [4] | Insecticidal activity rating, Southern Armyworm [6]
2: Phytotoxicity, Soybean [7]
1: Phytotoxicity, Tomato [3] | Phytotoxicity, Bean [8] | Phytotoxicity, Cotton [9] | Phytotoxicity, Corn [10]
C: Miticidal activity rating, Mite [5]

CN(SSN(C)C(=O)Oc1cccc2c1OC(C)(C)C2)C(=O)Oc1ccc2c(c1)OCO2
A: Insecticidal activity rating, Housefly [1] | Insecticidal activity rating, Mexican Bean Beetle [2] | Insecticidal activity rating, Aphid [4] | Insecticidal activity rating, Southern Armyworm [6]
1: Phytotoxicity, Tomato [3] | Phytotoxicity, Soybean [7] | Phytotoxicity, Bean [8] | Phytotoxicity, Cotton [9] | Phytotoxicity, Corn [10]
C: Miticidal activity rating, Mite [5]

Cc1cc(C)cc(OC(=O)N(C)SSN(C)C(=O)Oc2cccc3c2OC(C)(C)C3)c1
1: Phytotoxicity, Tomato [3] | Phytotoxicity, Soybean [7] | Phytotoxicity, Bean [8] | Phytotoxicity, Cotton [9] | Phytotoxicity, Corn [10]
C: Miticidal activity rating, Mite [5]
A: Insecticidal activity rating, Housefly [1] | Insecticidal activity rating, Mexican Bean Beetle [2] | Insecticidal activity rating, Aphid [4] | Insecticidal activity rating, Southern Armyworm [6]

CN(SSN(C)C(=O)Oc1cccc2c1OC(C)(C)C2)C(=O)Oc1cccc(N(C)C)c1
1: Phytotoxicity, Tomato [3] | Phytotoxicity, Soybean [7] | Phytotoxicity, Bean [8] | Phytotoxicity, Cotton [9] | Phytotoxicity, Corn [10]
C: Miticidal activity rating, Mite [5]
A: Insecticidal activity rating, Housefly [1] | Insecticidal activity rating, Mexican Bean Beetle [2] | Insecticidal activity rating, Aphid [4] | Insecticidal activity rating, Southern Armyworm [6]

CSc1ccc(OC(=O)N(C)SSN(C)C(=O)Oc2cccc3c2OC(C)(C)C3)cc1C
A: Insecticidal activity rating, Housefly [1] | Insecticidal activity rating, Mexican Bean Beetle [2] | Insecticidal activity rating, Aphid [4] | Insecticidal activity rating, Southern Armyworm [6]
1: Phytotoxicity, Tomato [3] | Phytotoxicity, Soybean [7] | Phytotoxicity, Bean [8] | Phytotoxicity, Cotton [9] | Phytotoxicity, Corn [10]
C: Miticidal activity rating, Mite [5]
